This passage reports MIC results from patent publication US4647572A, “Iodoallyl and iodopropargyl substituted tetrazoles and anti-microbial compositions thereof” (Meiji Seika Kaisha, Ltd., priority 1982, dated 1987).

≈ marks a conversion by molar mass, not a printed value. Where two headings read alike, the source gives them in different places.

Format in all cases: cell-based
Experiment [1] concerns Candida albicans GA-24. Briefly: Antifungal Activity MIC (in medicinal field). The settings on record: GA24, read-out: Minimal Inhibitory Concentration (MIC).
Experiment [2] deals with Cryptococcus neoformans Cr-1. Description: Antifungal Activity MIC (in medicinal field). The settings on record: CR1, read-out: Minimal Inhibitory Concentration (MIC).
Experiment [3] relates to Escherichia coli NIHJ JC-2. Briefly: Minimal Inhibitory Concentration Method. The settings on record: NIHJJC2, read-out: Minimal Inhibitory Conc.
Experiment [4] deals with Staphylococcus aureus 209P JC-1. Briefly: Minimal Inhibitory Concentration Method. The settings on record: read-out: Minimal Inhibitory Conc.
Experiment [5] has as its system Trichophyton interdigitale. Description: Antifungal Activity MIC (in medicinal field). The settings on record: read-out: Minimal Inhibitory Concentration (MIC).
Experiment [6] deals with Bacillus anthracis No. 119. Briefly: microbe, parasite or virus in culture. The settings on record: NO.119, read-out: Minimal Inhibitory Conc.
Experiment [7] has as its system Aspergillus fumigatus Saito. Briefly: Antifungal Activity MIC (in medicinal field). To be noted: read-out: Minimal Inhibitory Concentration (MIC).
Experiment [8] deals with Shigella sonnei EW 33 type I. Description: Minimal Inhibitory Concentration Method. The settings on record: EW33TYPEI, read-out: Minimal Inhibitory Conc. From the text: (Minimal Inhibitory Concentration Method)
Minimal Inhibitory Conc. (mcg/ml)

The test system of experiment [9] is Pseudomonas maltiophilia M-0627. Description: Minimal Inhibitory Concentration Method. The settings on record: M0627, read-out: Minimal Inhibitory Conc.
In experiment [10] the test system is Trichophyton metagrophytes 530324. Briefly: Antifungal Activity MIC (in medicinal field). The settings on record: read-out: Minimal Inhibitory Concentration (MIC).
Experiment [11] has as its system Proteus vulgaris OX-19. Description: Minimal Inhibitory Concentration Method.
The subject of experiment [12] is Pseudomonas cepacia M-0527. Description: Minimal Inhibitory Concentration Method. To be noted: Burkholderia cepacia, M0527, read-out: Minimal Inhibitory Conc.
Experiment [13] relates to Salmonella typhi 0-901-W. Briefly: Minimal Inhibitory Concentration Method. The settings on record: Salmonella enterica, read-out: Minimal Inhibitory Conc.
Experiment [14] deals with Klebsiella pneumoniae PCI 602. Briefly: Minimal Inhibitory Concentration Method. To be noted: PCI602, read-out: Minimal Inhibitory Conc.
The subject of experiment [15] is Serratia marcescens MB-3848. Briefly: Minimal Inhibitory Concentration Method.
Experiment [16] deals with Escherichia coli No. 29. Briefly: Minimal Inhibitory Concentration Method. To be noted: read-out: Minimal Inhibitory Conc.
The subject of experiment [17] is Bacillus subtilis ATCC 6633. Description: Minimal Inhibitory Concentration Method. To be noted: ATCC6633, read-out: Minimal Inhibitory Conc.
Experiment [18] deals with Shigella dysenteriae. Description: Minimal Inhibitory Concentration Method. To be noted: read-out: Minimal Inhibitory Conc.
Experiment [19] deals with Staphylococcus epidermidis ATCC 14990. Briefly: Minimal Inhibitory Concentration Method. To be noted: ATCC14990, read-out: Minimal Inhibitory Conc.
The mark [20] stands for this setting: Proteus vulgaris, OX19, read-out: Minimal Inhibitory Conc.
Setting [21] is: MB3848, Serratia marcescens MB-3848, read-out: Minimal Inhibitory Conc.
Where [22] appears, read: Staphylococcus aureus 209P JC-1.
Where [23] appears, read: OX19, Proteus vulgaris OX-19, read-out: Minimal Inhibitory Conc.

On to `CCCc1nnn(CC#CI)n1` [Compound No. 5, 2-(1'-iodopropyn-3'-yl)-5-n-propyltetrazole], for which the MIC in experiment [1] is 0.78 µg/mL (≈ 2.83 µM); in experiment [2], 0.78 µg/mL (≈ 2.83 µM); in experiment [3] it was 50 µg/mL (≈ 181 µM); in experiment [4] (Staphylococcus aureus, 209P), 12.5 µg/mL (≈ 45.3 µM); in [5], ≤ 0.05 µg/mL; in experiment [6], 12.5 µg/mL (≈ 45.3 µM). The MIC is ≤ 0.05 µg/mL in experiment [7]; 6.25 µg/mL (≈ 22.6 µM) in experiment [8]; 25 µg/mL (≈ 90.6 µM) in experiment [9]; 0.05 µg/mL (≈ 0.181 µM) in experiment [10]; 12.5 µg/mL (≈ 45.3 µM) in experiment [11] (setting [20]); 100 µg/mL (≈ 362 µM) in experiment [12]. For the same compound, the MIC in experiment [13] turned out to be 25 µg/mL (≈ 90.6 µM); in [14] it was 100 µg/mL (≈ 362 µM); in [15] (setting [21]) it was 25 µg/mL (≈ 90.6 µM).

Consider `CC(C)c1nnn(CC#CI)n1` [Compound No. 7, 2-(1'-iodopropyn-3'-yl)-5-isopropyltetrazole], for which the MIC in [1] is ≤ 0.05 µg/mL; in experiment [2], 0.78 µg/mL (≈ 2.83 µM); in [3] it was 25 µg/mL (≈ 90.6 µM); in [4] (Staphylococcus aureus, 209P), 12.5 µg/mL (≈ 45.3 µM); in experiment [5], ≤ 0.05 µg/mL; in experiment [6], 12.5 µg/mL (≈ 45.3 µM). Also, the MIC in experiment [7] was ≤ 0.05 µg/mL; in experiment [8], 6.25 µg/mL (≈ 22.6 µM); in experiment [9] it was 50 µg/mL (≈ 181 µM); in experiment [10], ≤ 0.05 µg/mL; in experiment [11] (setting [20]), 12.5 µg/mL (≈ 45.3 µM); in [12], > 100 µg/mL. The results for the MIC in experiment [13], in [14] and in experiment [15] (setting [21]) were 25 µg/mL (≈ 90.6 µM), 100 µg/mL (≈ 362 µM) and 25 µg/mL (≈ 90.6 µM), respectively.

`CC(C)(C)c1nnnn1CC(I)=C(I)I` [Compound No. 45, 1-(2',3',3'-triiodoallyl)-5-tert.-butyltetrazole]: the MIC is 0.78 µg/mL (≈ 1.43 µM) in experiment [4] (setting [22]); 6.25 µg/mL (≈ 11.5 µM) in experiment [16]; 0.78 µg/mL (≈ 1.43 µM) in [17]; 3.13 µg/mL (≈ 5.75 µM) in [11] (setting [20]); 12.5 µg/mL (≈ 23 µM) in experiment [12]; 50 µg/mL (≈ 91.9 µM) in [13]. The MIC is 12.5 µg/mL (≈ 23 µM) in experiment [15] (setting [21]), 3.13 µg/mL (≈ 5.75 µM) in experiment [18] and 0.2 µg/mL (≈ 0.368 µM) in experiment [19].

For `CC(C)c1nnn(CC(I)=C(I)I)n1` [Compound No. 48, 2-(2',3',3'-triiodoallyl)-5-isopropyltetrazole], the MIC in experiment [1] was found to be 12.5 µg/mL (≈ 23.6 µM); in [2], 12.5 µg/mL (≈ 23.6 µM); in experiment [4] (setting [22]) it was 1.56 µg/mL (≈ 2.94 µM); in experiment [5], 0.78 µg/mL (≈ 1.47 µM); in experiment [7] it was 3.13 µg/mL (≈ 5.91 µM); in experiment [10], 0.78 µg/mL (≈ 1.47 µM). Besides, the MIC in [16] was determined as 6.25 µg/mL (≈ 11.8 µM); in experiment [17], 0.39 µg/mL (≈ 0.736 µM); in experiment [11] (setting [23]) it was 6.25 µg/mL (≈ 11.8 µM); in experiment [12], 6.25 µg/mL (≈ 11.8 µM); in [13], 12.5 µg/mL (≈ 23.6 µM); in experiment [15] (Serratia marcescens, MB3848, read-out: Minimal Inhibitory Conc.), 12.5 µg/mL (≈ 23.6 µM). Moreover, the values for the MIC in experiment [18] and in [19] were 3.13 µg/mL (≈ 5.91 µM) and 0.39 µg/mL (≈ 0.736 µM), respectively.

As for `IC(I)=C(I)Cn1nnnc1Cc1ccccc1` [Compound No. 59, 1-(2',3',3'-triiodoallyl)-5-benzyltetrazole], the MIC in experiment [4] (setting [22]) is 1.56 µg/mL (≈ 2.7 µM); in [16], 0.78 µg/mL (≈ 1.35 µM); in [17], 1.56 µg/mL (≈ 2.7 µM); in [11] (setting [23]) it was 1.56 µg/mL (≈ 2.7 µM); in experiment [12], 3.13 µg/mL (≈ 5.42 µM); in experiment [13], 12.5 µg/mL (≈ 21.6 µM). For the same compound, the MIC in experiment [15] (setting [21]) worked out at 3.13 µg/mL (≈ 5.42 µM); in experiment [18] it was 0.39 µg/mL (≈ 0.675 µM); in [19], 0.2 µg/mL (≈ 0.346 µM).
